Laboratory results published in patent US8247211B2, “Glycopeptide antibiotics” (American Cyanamid Company, priority 2001, dated 2012).
In brackets after ≈: the same amount, converted by molar mass.

Assays:
[1] = tested on: Staphylococcus aureus-SMITH (GC 4543); test: Acute lethal infection in mice (ED50); assay type: in vivo; details: female CD-1 mice, intraperitoneal challenge, intravenous dose 30 min. after infection, 7 day survival ratios
Method in brief: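 Bacteria suspended in Trypticase Soy Broth or hog gastric mucin are injected intraperitoneally into female CD-1 mice at a dose killing untreated animals within 24-48 hr. Thirty minutes later, test agent is administered intravenously. Survival at day 7 is scored.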

Enterococcus sp. = test: In vitro antibacterial evaluation: minimum inhibitory concentration (MIC), broth dilution method; assay type: cell-based
Method in brief: (§1)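 Using Muller-Hinton II […] and an inoculum of 5×10^5 CFU/mL, antibiotic dilutions from 64 down to 0.06 μg/mL were tested following NCCLS M7-A2. The MIC is the lowest concentration inhibiting growth, including in methicillin-, penicillin- or vancomycin-resistant clinical isolates.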

Staphylococcus sp. = test: as above; assay type: cell-based; details: broth dilution, 18 hours at 35° C.
Method in brief: as §1

Escherichia coli = test: as above; assay type: cell-based
Method in brief: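 Susceptibility determined by NCCLS-recommended broth dilution (M7-A2), Muller-Hinton II […]. Concentration span 64-0.06 μg/mL, inoculum 5×10^5 CFU/mL. Isolates include strains resistant to methicillin, penicillin and/or vancomycin.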

Streptococcus sp. = test: as above; assay type: cell-based
Method in brief: as §1

## CC(c1ccccc1)C1NC(=O)CNC(=O)C(CO)NC(=O)C(C(O)C2CNC(=N)N2C2OC(CO)C(O)C(O)C2O)NC(=O)C(C(O)C2CNC(=N)N2)NC(=O)C(Cc2ccc(OC3OC(CO)C(OC4OC5COC(c6cccc(-c7ccccc7)c6)OC5C(O)C4O)C(O)C3O)cc2)NC1=O (stereo not drawn) [Example 154, Cyclo[glycyl-β-methylphenylalanyl-O-[4-O-[4,6-O-(3-phenylbenzylidene)hexopyranosyl)-hexopyranosyl]tyrosyl-3-(2-iminoimidazolidin-4-yl)seryl-3-(3-hexopyranosyl-2-iminoimidazolidin-4-yl)serylseryl]]
[1]
  median effective dose (ED50), Staphylococcus aureus-SMITH (GC 4543): 0.1 mg/kg
Enterococcus sp.; Enterococcus avium (GC 4558), broth dilution, 18 hours at 35° C.
  MIC Enterococcus avium (GC 4558): 1 µg/mL (≈ 0.685 µM)
Enterococcus sp.; Enterococcus faecalis (ATCC 29212), broth dilution, 18 hours at 35° C.
  MIC Enterococcus faecalis (ATCC 29212): 2 µg/mL (≈ 1.37 µM)
Enterococcus sp.; Enterococcus faecalis (GC 4552), broth dilution, 18 hours at 35° C.
  MIC Enterococcus faecalis (GC 4552): 2 µg/mL (≈ 1.37 µM)
Enterococcus sp.; Enterococcus faecalis (GC 4553), broth dilution, 18 hours at 35° C.
  MIC Enterococcus faecalis (GC 4553): 2 µg/mL (≈ 1.37 µM)
Enterococcus sp.; Enterococcus faecalis (GC 4554), broth dilution, 18 hours at 35° C.
  MIC Enterococcus faecalis (GC 4554): 2 µg/mL (≈ 1.37 µM)
Enterococcus sp.; Enterococcus faecalis (GC 6189), broth dilution, 18 hours at 35° C.
  MIC Enterococcus faecalis (GC 6189): 2 µg/mL (≈ 1.37 µM)
Enterococcus sp.; Enterococcus faecium (GC 2243), broth dilution, 18 hours at 35° C.
  MIC Enterococcus faecium (GC 2243): 2 µg/mL (≈ 1.37 µM)
Enterococcus sp.; Enterococcus faecium (GC 4556), broth dilution, 18 hours at 35° C.
  MIC Enterococcus faecium (GC 4556): 2 µg/mL (≈ 1.37 µM)
Enterococcus sp.; Enterococcus faecium (GC 4557), broth dilution, 18 hours at 35° C.
  MIC Enterococcus faecium (GC 4557): 2 µg/mL (≈ 1.37 µM)
Enterococcus sp.; strain ATCC 29212
  MIC Enterococcus faecalis (ATCC 29212): 2 µg/mL (≈ 1.37 µM)
Enterococcus sp.; strain GC 2242
  MIC Enterococcus faecalis (GC 2242): 2 µg/mL (≈ 1.37 µM)
Enterococcus sp.; strain GC 2243
  MIC Enterococcus faecium (GC 2243): 2 µg/mL (≈ 1.37 µM)
Enterococcus sp.; strain GC 2691
  MIC Enterococcus faecalis (GC 2691): 2 µg/mL (≈ 1.37 µM)
Enterococcus sp.; strain GC 3059
  MIC Enterococcus faecalis (GC 3059): 2 µg/mL (≈ 1.37 µM)
Enterococcus sp.; strain GC 4552
  MIC Enterococcus faecalis (GC 4552): 2 µg/mL (≈ 1.37 µM)
Enterococcus sp.; strain GC 4553
  MIC Enterococcus faecalis (GC 4553): 2 µg/mL (≈ 1.37 µM)
Enterococcus sp.; strain GC 4554
  MIC Enterococcus faecalis (GC 4554): 2 µg/mL (≈ 1.37 µM)
Enterococcus sp.; strain GC 4556
  MIC Enterococcus faecium (GC 4556): 2 µg/mL (≈ 1.37 µM)
Enterococcus sp.; strain GC 4557
  MIC Enterococcus faecium (GC 4557): 2 µg/mL (≈ 1.37 µM)
Enterococcus sp.; strain GC 4558
  MIC Enterococcus avium (GC 4558): 1 µg/mL (≈ 0.685 µM)
Enterococcus sp.; strain GC 6189
  MIC Enterococcus faecalis (GC 6189): 2 µg/mL (≈ 1.37 µM)
Staphylococcus sp.; 5×10^5 CFU/mL
  MIC Coagulase Negative Staphylococcus (GC 4547): 2 µg/mL (≈ 1.37 µM)
  MIC Coagulase Negative Staphylococcus (GC 4548): 0.5 µg/mL (≈ 0.343 µM)
  MIC Coagulase Negative Staphylococcus (GC 4549): 0.25 µg/mL (≈ 0.171 µM)
  MIC Coagulase Negative Staphylococcus (GC 4551): 2 µg/mL (≈ 1.37 µM)
  MIC Coagulase Negative Staphylococcus (GC 6257): 1 µg/mL (≈ 0.685 µM)
  MIC Staphylococcus aureus (ATCC 29213): 1 µg/mL (≈ 0.685 µM)
  MIC Staphylococcus aureus (GC 1131): 1 µg/mL (≈ 0.685 µM)
  MIC Staphylococcus aureus (GC 3051): 1 µg/mL (≈ 0.685 µM)
  MIC Staphylococcus aureus (GC 3053): 2 µg/mL (≈ 1.37 µM)
  MIC Staphylococcus aureus (GC 4541): 1 µg/mL (≈ 0.685 µM)
  MIC Staphylococcus aureus (GC 4542): 1 µg/mL (≈ 0.685 µM)
  MIC Staphylococcus aureus (GC 4544): 2 µg/mL (≈ 1.37 µM)
  MIC Staphylococcus aureus (GC 4545): 1 µg/mL (≈ 0.685 µM)
  MIC Staphylococcus aureus-SMITH (GC 4543): 1 µg/mL (≈ 0.685 µM)
  MIC Staphylococcus haemolyticus (GC 4546): 1 µg/mL (≈ 0.685 µM)
Staphylococcus sp.; strain ATCC 29213
  MIC Staphylococcus aureus (ATCC 29213): 1 µg/mL (≈ 0.685 µM)
Staphylococcus sp.; strain GC 1131
  MIC Staphylococcus aureus (GC 1131): 1 µg/mL (≈ 0.685 µM)
Staphylococcus sp.; strain GC 3051
  MIC Staphylococcus aureus (GC 3051): 1 µg/mL (≈ 0.685 µM)
Staphylococcus sp.; strain GC 3053
  MIC Staphylococcus aureus (GC 3053): 2 µg/mL (≈ 1.37 µM)
Staphylococcus sp.; strain GC 4541
  MIC Staphylococcus aureus (GC 4541): 1 µg/mL (≈ 0.685 µM)
Staphylococcus sp.; strain GC 4542
  MIC Staphylococcus aureus (GC 4542): 1 µg/mL (≈ 0.685 µM)
Staphylococcus sp.; strain GC 4543
  MIC Staphylococcus aureus-SMITH (GC 4543): 1 µg/mL (≈ 0.685 µM)
Staphylococcus sp.; strain GC 4544
  MIC Staphylococcus aureus (GC 4544): 2 µg/mL (≈ 1.37 µM)
Staphylococcus sp.; strain GC 4545
  MIC Staphylococcus aureus (GC 4545): 1 µg/mL (≈ 0.685 µM)
Staphylococcus sp.; strain GC 4546
  MIC Staphylococcus haemolyticus (GC 4546): 1 µg/mL (≈ 0.685 µM)
Staphylococcus sp.; strain GC 4547
  MIC Coagulase Negative Staphylococcus (GC 4547): 2 µg/mL (≈ 1.37 µM)
Staphylococcus sp.; strain GC 4548
  MIC Coagulase Negative Staphylococcus (GC 4548): 0.5 µg/mL (≈ 0.343 µM)
Staphylococcus sp.; strain GC 4549
  MIC Coagulase Negative Staphylococcus (GC 4549): 0.25 µg/mL (≈ 0.171 µM)
Staphylococcus sp.; strain GC 4551
  MIC Coagulase Negative Staphylococcus (GC 4551): 2 µg/mL (≈ 1.37 µM)
Staphylococcus sp.; strain GC 6257
  MIC Coagulase Negative Staphylococcus (GC 6257): 1 µg/mL (≈ 0.685 µM)
Escherichia coli; strain ATCC 25922
  MIC Escherichia coli (ATCC 25922): 32 µg/mL (≈ 21.9 µM)
Escherichia coli; strain GC 4559
  MIC Escherichia coli (GC 4559): 32 µg/mL (≈ 21.9 µM)
Escherichia coli; strain GC 4560
  MIC Escherichi coli (GC 4560): 2 µg/mL (≈ 1.37 µM)
Streptococcus sp.; strain ATCC 6301
  MIC Streptococcus pneumoniae (ATCC 6301): <0.06 µg/mL
Streptococcus sp.; strain GC 1894
  MIC Streptococcus pneumoniae (GC 1894): <0.06 µg/mL
Streptococcus sp.; strain GC 4563
  MIC Streptococcus pyogenes (GC 4563): <0.06 µg/mL
Streptococcus sp.; strain GC 4564
  MIC Streptococcus agalactiae (GC 4564): <0.06 µg/mL
Streptococcus sp.; strain GC 4565
  MIC Streptococcus pneumoniae (GC 4565): <0.06 µg/mL
